{"source": "patent USRE48253E1", "about": "“Methotrexate adjuvants to reduce toxicity and methods for using the same” (Tosk, Inc., priority 2008, dated 2020)", "key": {"[1]": {"system": "AS283 human lymphoma xenografts", "test": "Mouse Study V: xenograft with AS283 implants", "assay_type": "in vivo, C.B.-17 SCID mice", "conditions": "p=1.0", "method": "Six-week-old male SCID mice were implanted with fragments of AS283 human lymphoma tumors. The tumors were allowed to reach 75-198 mg in weight (75-198 mm^3 in size) before the start of treatment. The experiment consisted of two treatment groups and one vehicle-treated control group, with ten animals per group, for a total of 30 mice on the first day of treatment.\nTK-112690 was administered by ip injection [twice every 2 days for 5 injections with six hour interval (q6h×2, q2d×5)] at a dosage of 30 mg/kg/injection. MTX was administered by ip injection q2d×5 at a dosage of 5.0 mg/kg/injection three hours after the TK-112690 injection. The control group was treated with both vehicles, which were administered on the corresponding compound schedules.\nSix-week-old male C.B.-17 SCID mice were acclimated in the laboratories for seven days prior to experimentation. Thirty-to-forty mg fragments of AS283 human lymphoma tumor were implanted sc in mice near the right flank using a 12-gauge trocar needle and allowed to grow. […]\nThe sc tumors were measured and the animals were weighed thrice weekly starting the day of the first treatment. Tumor volume was determined by caliper measurements (mm) and using the formula for an ellipsoid sphere: L×W^2/2=mm^3, where L and W refer to the larger and smaller perpendicular dimensions collected at each measurement. […]"}, "[2]": {"test": "Mouse Study VI: plasma uridine and TK-112690 after TK-112690 treatment", "assay_type": "in vivo, CD-1 mouse", "conditions": "0, 15, 30, 60 and 120 mg/kg ip", "method": "In this study, CD-1 female mice were injected ip with 120 mg/kg TK-112690 and plasma from the animals analyzed by HPLC using UV detection for TK-112690 and uridine. Concentrations of uridine and TK-112690 in plasma samples collected 0.08, 0.50, 1, 2, 4 or 12 hours post TK-112690 injection were determined by HPLC using UV detection. […] An increase in plasma uridine was noted almost immediately following administration of TK-112690. At 0.5 hour post TK-112690 dose, a 100 μg/mL plasma concentration TK-112690 is associated with a plasma uridine concentration of approximately 2 μg/mL of uridine (baseline uridine concentration approximately 0.5 μg/mL). […]\nPlasma uridine concentration was determined by HPLC using UV detectionafter animals were treated with TK-112690 as follows. […] CD-1 female mice were injected ip with a range of TK-112690 doses (0, 15, 30, 60 and 120 mg/kg) and plasma from the animals analyzed for TK-112690 uridine concentrations expected to be elevated through UPase inhibition by TK-112690. Plasma uridine concentrations were determined from plasma samples collected 0.08, 0.50, 1, 2, 4 or 12 hours post TK-112690 injection. […]\nThe micromolar concentration of plasma uridine was determined by linear equation (y=mx+b) generated from uridine and 5-FU calibration curve. The y value is calculated by taking ratio of peak heights (mm) of uridine and 5-FU. […]"}}}
{"molecule": "Cc1cn2c(nc1=O)O[C@H]1[C@H](O)[C@@H](CO)O[C@H]12", "note": "[TK-112690, 2,2′-anhydro-5-methyluridine]", "values": [{"measurement": "tumor volumes Day 21, MTX+TK-112690 vs MTX", "setting": "[1]", "result": "no statistical difference"}, {"measurement": "plasma concentrations of TK-112690 vs dose", "setting": "[2]", "result": "increased with increasing doses"}]}
